Test results as given in patent US8030443B2, “Squamous cell carcinoma antigen-derived peptide binding to HLA-A24 molecule” (Kurume University, priority 2005, dated 2011).
Residues, ends and D or L forms follow the SMILES beside them.

Tested on: YES-2 (HLA-A24^+, SCCA^+) esophageal squamous cell carcinoma cells
Assay: 6-h 51Cr-release cytotoxicity assay of peptide-stimulated CTLs
Format: cell-based, human
Description: Cultured cells in wells producing IFN-γ in response to a corresponding peptide were collected and further cultured with IL-2 alone for 10-14 days in order to obtain a sufficiently large number of cells to perform a standard 6-h ^51Cr-release assay. The following tumor cell lines were used as targets; YES-1 (HLA-A24^− and SCCA^+ esophageal squamous cell carcinoma), and YES-2 (HLA -A24^+ and SCCA^+ esophageal squamous cell carcinoma). Phytohemagglutinin (PHA)-stimulated blastoid T cells were also used as a negative control. In some experiments, 20 μg/ml of anti-HLA-class I (W6/32, IgG2a) (BioLegend, Camino Santa Fe, San Diego, Calif., USA), anti-HLA-class II (H-DR-1, IgG2a) (kindly provided by Dr. Yasuji NISHIMURA, KUMAMOTO UNIVERSITY, Japan), anti-CD4 (Nu-Th/i, IgG1) (established at Department of Immunology, Kurume University School of Medicine, Japan), or anti-CD8 (Nu-Ts/c, IgG2a) monoclonal antibody (mAb) (established at Department of Immunology, Kurume University School of Medicine, Japan) were added to the wells at the initiation of the assay. An anti-CD14 (JML-H14, IgG2a) mAb (established at Department of Immunology, Kurume University School of Medicine, Japan) was used as a negative control.

## CC[C@H](C)[C@H](NC(=O)CNC(=O)[C@H](CC(C)C)NC(=O)[C@H](CC(C)C)NC(=O)[C@H](CCC(N)=O)NC(=O)[C@H](CCC(N)=O)NC(=O)[C@H](CCCNC(=N)N)NC(=O)[C@H](CC(C)C)NC(=O)[C@H](Cc1ccc(O)cc1)NC(=O)[C@@H](N)CCCNC(=N)N)C(=O)O [HIV peptide, RYLRQQLLGI, reference compound] (H-RYLRQQLLGI-OH)
SCC patients (Pts 2, 5, 7, 8), targets YES-2, YES-1, PHA-stimulated T-cell blasts (FIG. 4B)
  Cytotoxicity of peptide-stimulated CTLs/PBMCs: did not show any cytotoxicity

## CC(C)C[C@H](NC(=O)[C@H](Cc1ccc(O)cc1)NC(=O)[C@H](CCC(=O)O)NC(=O)[C@H](CCC(N)=O)NC(=O)[C@H](CC(C)C)NC(=O)[C@H](Cc1ccccc1)NC(=O)[C@H](CC(C)C)NC(=O)[C@H](Cc1ccc(O)cc1)NC(=O)[C@@H](N)[C@@H](C)O)C(=O)O [SCCA 112, TYLFLQEYL] (H-TYLFLQEYL-OH)
  Cytotoxicity of peptide-stimulated CTLs against YES-2 cells: exhibited cytotoxicity against YES-2 cells in an HLA class I-restricted manner

## CC(C)C[C@H](NC(=O)[C@H](CO)NC(=O)[C@H](C)NC(=O)[C@H](Cc1ccccc1)NC(=O)[C@H](Cc1c[nH]cn1)NC(=O)[C@H](Cc1ccccc1)NC(=O)[C@H](CO)NC(=O)[C@@H](NC(=O)[C@H](Cc1ccc(O)cc1)NC(=O)[C@@H](N)CCC(N)=O)[C@@H](C)O)C(=O)O [SCCA 215, QYTSFHFASL] (H-QYTSFHFASL-OH)
  Cytotoxicity of peptide-stimulated CTLs against YES-2 cells: exhibited cytotoxicity against YES-2 cells in an HLA class I-restricted manner
